Values of other authors as cited in article PMC9199201, “Biomimetic and temporal-controlled nanocarriers with ileum transporter targeting for achieving oral administration of chemotherapeutic drugs” (Journal of Nanobiotechnology, 2022).

Set-up: method as in PMID 23220325

Oral bioavailability: less than 1%
SMILES: CC(=O)O[C@H]1C(=O)[C@@]2(C)[C@H]([C@H](OC(=O)c3ccccc3)[C@]3(O)C[C@H](OC(=O)[C@H](O)[C@@H](NC(=O)c4ccccc4)c4ccccc4)C(C)=C1C3(C)C)[C@]1(OC(C)=O)CO[C@@H]1C[C@@H]2O [PTX, paclitaxel]
